What was measured:
[1] = test system: S. uberis in mastitic raw cow's milk; assay: Challenge of mastitic raw cow's milk; assay type: cell-based, Streptococcus uberis; settings: milk of 4 cows, 8 h; 0.5 μM NC5, 50 μg/mL cloxacillin or both
Description: Raw cow's milk from S. uberis infected dairy cows was supplied by the milk control center of Flanders (MCC Vlaanderen). Upon arrival, the milk was serially diluted and plated on BHI agar to determine the bacterial load. Only milk with >10^5 […] CFU/mL S. uberis was included as a selection criterium. If needed, the raw milk was incubated during 8 h at 37° C. to artificially increase the initial bacterial load. […] Upon incubation at 37° C., every 2 h, 20 μL was transferred from each well to 180 μL dPBS, serially diluted and plated on BHI agar. Plates were incubated overnight and CFU/mL were calculated the next day. Undiluted, mastitic milk was always pipetted with ClipTip Pipette Tips (Westburg, The Netherlands) due to high viscosity. Mastitis isolates were confirmed as S. uberis by MALDI-TOF MS biotyping.

[2] = test system: S. uberis-infected murine mammary glands; assay: Mouse model of S. uberis mastitis: bacterial load and clinical symptoms; assay type: in vivo; settings: 30 μg cloxacillin stand-alone
From the text: (§1) All experimental procedures on mice were executed at the Faculty of Veterinary Medicine of Ghent University (Merelbeke, Belgium). Breeding pairs of female and male CD-1 mice (Envigo, The Netherlands) were allowed to mate during two weeks, after which the dams gave birth approximately seven days later. Twelve days postpartum, the lactating dams were intraductally inoculated with a blunted 32 gauge pediatric needle in the fourth inguinal mammary gland pair after properly disinfecting the teat. These intraductal inoculations were always performed under general gas anesthesia, using a mixture of medical oxygen and isoflurane at 2.5-3.0% for induction and 1.5-2.0% for maintenance. The long-acting analgesic buprenorphine was administered at 10 μg/kg intraperitoneally for post-surgical pain relief. An inoculum dose of approximately […] colony forming units (CFU) of a clinical bovine mastitis S. uberis isolate in 100 μl dPBS was intraductally inoculated at 1 h post-weaning and mice were grouped ad random at 12 h post-infection (p.i.) and placed under gas anesthesia a second time to administer intramammary treatment. […] The treated mice were sedated 16 h p.i. (i.e., 4 h post-treatment). The therapeutics were diluted in dPBS to their desired concentration, mixed by pipetting and kept on melting ice until they were administered intraductally within 1 h after preparation. […]

[3] = test system: S. uberis-infected murine mammary glands; assay: Mouse model of S. uberis mastitis: inflammatory protein profiling in mammary gland lysates; assay type: in vivo; settings: 30 μg cloxacillin stand-alone
From the text: All experimental procedures on mice were executed at the Faculty of Veterinary Medicine of Ghent University (Merelbeke, Belgium). Breeding pairs of female and male CD-1 mice (Envigo, The Netherlands) were allowed to mate during two weeks, after which the dams gave birth approximately seven days later. Twelve days postpartum, the lactating dams were intraductally inoculated with a blunted 32 gauge pediatric needle in the fourth inguinal mammary gland pair after properly disinfecting the teat. These intraductal inoculations were always performed under general gas anesthesia, using a mixture of medical oxygen and isoflurane at 2.5-3.0% for induction and 1.5-2.0% for maintenance. The long-acting analgesic buprenorphine was administered at 10 μg/kg intraperitoneally for post-surgical pain relief. An inoculum dose of approximately […] colony forming units (CFU) of a clinical bovine mastitis S. uberis isolate in 100 μl dPBS was intraductally inoculated at 1 h post-weaning and mice were grouped ad random at 12 h post-infection (p.i.) and placed under gas anesthesia a second time to administer intramammary treatment. […] The treated mice were sedated 16 h p.i. (i.e., 4 h post-treatment). The therapeutics were diluted in dPBS to their desired concentration, mixed by pipetting and kept on melting ice until they were administered intraductally within 1 h after preparation. Inoculum preparation was done by growing S. uberis to stationary phase in brain heart infusion (BHI), after which cells were washed with dPBS and diluted in dPBS to the desired concentration based on OD600 measurements.
The host response to the experimental mammary gland infection and subsequent therapy was investigated by determining the levels of inflammatory cytokines and chemokines in mammary gland lysates, obtained by mixing the homogenates with 300 μL caspase lysis buffer (CLB) containing protease inhibitors, and subsequent centrifugation (12,000 g; 4° C.; 20 min). Protein concentration of these lysates was determined using the Bradford protein assay. Standardization of the mammary gland lysates was done by dilution in CLB to assure equal protein concentrations. Levels of the selected inflammatory mediators TNF-α, MCP-1, M-& G-CSF as well as IL-1α, -1β, -6, & -8, were determined on mammary gland lysates using a ProcartaPlex Immunoassay. Quantification of CHI3L1 and LCN2 was performed by ELISA.

[4] = test system: S. uberis-infected murine mammary glands; assay: Mouse model of S. uberis mastitis: Ly6G immunohistochemistry (neutrophil influx); assay type: in vivo; settings: 30 μg cloxacillin stand-alone
From the text: as §1

## Cc1onc(-c2ccccc2Cl)c1C(=O)N[C@@H]1C(=O)N2[C@@H]1SC(C)(C)[C@@H]2C(=O)O [cloxacillin]
[1]
  log10 reduction of S. uberis versus PBS control: significant (p<0.05) reductions in all 4 mastitic milk samples at 8 h
[2]
  decrease in CFU numbers versus placebo: 630 fold
[2]; intramammary, 4 h post-treatment, all mice
  decrease of bacterial load versus placebo: 55 fold
[3]
  CHI3L1 reduction versus placebo: 1.4 fold
  IL-1α decrease versus placebo: 1.2 fold
  IL-1β decrease versus placebo: 1.3 fold
  IL-6 decrease versus placebo: 2.0 fold
  LCN2 reduction versus placebo: 1.2 fold
  MCP-1 reduction versus placebo: 1.5 fold
  MIP-2 decrease versus placebo: 1.6 fold
  TNF-α decrease versus placebo: 1.4 fold
[4]
  reduced neutrophil influx (Ly6G-positive staining) versus placebo: 1.8 fold

Reference: patent publication US20260275317A1, “CHIMERIC ENDOLYSINS WITH ACTIVITY AGAINST STREPTOCOCCI AND STAPHYLOCOCCI” (UNIVERSITEIT GENT, priority 2023, published 2026)
